pKi: −log10 of the molar value. Where a name gives a salt, the structure may show the parent alone.

From patent US7332501B2, “Indol-3-yl-carbonyl-spiro-piperidine derivatives as V1a receptor antagonists” (Hoffmann-La Roche Inc., priority 2005, dated 2008) come the findings set out here.

The experiment deals with T1, human V1a receptor (Homo sapiens, UniProt P37288).
T1 construct: expressed in transfected cells; host or cells: HEK293 cells, transiently transfected; cell membranes
T1 sequence (P37288 whole entry): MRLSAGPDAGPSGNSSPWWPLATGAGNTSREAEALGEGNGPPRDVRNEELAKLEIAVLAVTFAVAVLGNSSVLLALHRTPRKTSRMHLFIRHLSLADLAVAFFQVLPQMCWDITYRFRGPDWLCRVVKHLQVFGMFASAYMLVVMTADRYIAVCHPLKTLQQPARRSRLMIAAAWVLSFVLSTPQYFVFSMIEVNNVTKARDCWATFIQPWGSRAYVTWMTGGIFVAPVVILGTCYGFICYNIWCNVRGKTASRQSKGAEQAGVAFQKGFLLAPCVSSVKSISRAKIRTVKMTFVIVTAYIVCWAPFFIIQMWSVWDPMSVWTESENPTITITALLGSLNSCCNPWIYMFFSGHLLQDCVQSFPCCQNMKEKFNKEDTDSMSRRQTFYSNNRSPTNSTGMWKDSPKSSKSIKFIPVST
As to the kind of experiment: human V1a receptor binding (3H-Vasopressin SPA, HEK293 membranes). Particulars: displacement of 4 nM 3H-Vasopressin, membranes of HEK293 cells transiently transfected with human V1a receptor; Ki from IC50 by Cheng-Prussoff. On the procedure: The human V1a receptor was cloned by RT-PCR from total human liver RNA. The coding sequence was subcloned in an expression vector after sequencing to confirm the identity of the amplified sequence. […] Cell membranes were prepared from HEK293 cells transiently transfected with the expression vector and grown in 20 liter fermenters with the following protocol.
50 g cells are resuspended in 30 ml freshly prepared ice cold Lysis buffer (50 mM HEPES, 1 mM EDTA, 10 mM MgCl2 adjusted to pH=7.4+complete cocktail of protease inhibitor (Roche Diagnostics)). The cells are homogenized with Polytron for 1 min and sonicated on ice for 2×2 minutes at 80% intensity (Vibracell sonicator). The preparation is centrifuged 20 min at 500 g at 4° C., the pellet is discarded and the supernatant centrifuged 1 hour at 43,000 g at 4° C. (19,000 rpm). The pellet is resuspended in 12.5 ml Lysis buffer+12.5 ml Sucrose 20% and homogenized using a Polytron for 1-2 min. The protein concentration is determined by the Bradford method and aliquots are stored at −80° C. until use. For binding studies 60 mg Yttrium silicate SPA beads (Amersham) are mixed with an aliquot of membrane in binding buffer (50 mM Tris, 120 mM NaCl, 5 mM KCl, 2 mM CaCl2, 10 mM MgCl2) for 15 minutes with mixing. 50 ul of bead/membrane mixture is then added to each well of a 96 well plate, followed by 50 ul of 4 nM 3H-Vasopressin (American Radiolabeled Chemicals). For total binding measurement 100 ul of binding buffer are added to the respective wells, for non-specific binding 100 ul of […] cold vasopressin and for compound testing 100 ul of a serial dilution of each compound in 2% DMSO. The plate is incubated 1 h at room temperature, centrifuged 1 min at 1000 g and counted on a Packard Top-Count. Non-specific binding counts are subtracted from each well and data is normalized to the maximum specific binding set at 100%. To calculate an IC 50 the curve is fitted using a non-linear regression model (XLfit), and the Ki is calculated using the Cheng-Prussoff equation.
A word on the pKi: it is the Ki on a negative log10 scale, so that one unit is a factor of ten. A lower pKi goes with a large Ki. Consider `O=C1OC2(CCN(C(=O)c3cn(CC4(F)COC4)c4cc(Cl)ccc34)CC2)c2ccc(F)cc21` [Example 188, 1′-({6-Chloro-1-[(3-fluorooxetan-3-yl)methyl]-1H-indol-3-yl}carbonyl)-5-fluoro-3H-spiro[2-benzofuran-1,4′-piperidin]-3-one], for which the pKi is 8.80. Then `Cc1cc(Cn2cc(C(=O)N3CCC4(CC3)OCc3ccccc34)c3ccc(Cl)cc32)ccn1` [Example 260, 1′-({6-Chloro-1-[(2-methylpyridin-4-yl)methyl]-1H-indol-3-yl}carbonyl)-3H-spiro[2-benzofuran-1,4′-piperidine]], with 8.55; and `O=C(c1cn(Cc2cccc(F)c2)c2cc(Cl)ccc12)N1CCC2(CC1)OCc1ccccc12` [Example 220], with 9.00. Then `Cc1c(C(=O)N2CCC3(CC2)OCc2ccccc23)c2ccccc2n1Cc1cccc(F)c1` [Example 47, 1′-{[1-(3-fluorobenzyl)-2-methyl-1H-indol-3-yl]carbonyl}-3H-spiro[2-benzofuran-1,4′-piperidine]], with 9.30. Next, `Cc1cc(Cn2cc(C(=O)N3CCC4(CC3)OC(=O)c3cc(F)ccc34)c3ccc(Cl)cc32)nn1C` [Example 185, 1′-({6-Chloro-1-[(1,5-dimethyl-1H-pyrazol-3-yl)methyl]-1H-indol-3-yl}carbonyl)-5-fluoro-3H-spiro[2-benzofuran-1,4′-piperidin]-3-one]: 8.66; `O=C1OC2(CCN(C(=O)c3cn(-c4cc(F)cc(F)c4)c4cc(Cl)ccc34)CC2)c2ccccc21` [Example 127, 1′-{[6-Chloro-1-(3,5-difluorophenyl)-1H-indol-3-yl]carbonyl}-3H-spiro[2-benzofuran-1,4′-piperidin]-3-one]: 8.52.

For `Cc1cc(Cn2cc(C(=O)N3CCC4(CC3)OC(=O)c3cc(F)ccc34)c3ccc(Cl)cc32)no1` [Example 179, 1′-({6-Chloro-1-[(5-methylisoxazol-3-yl)methyl]-1H-indol-3-yl}carbonyl)-5-fluoro-3H-spiro[2-benzofuran-1,4′-piperidin]-3-one], the pKi is 8.51. In turn, `CN(C)C(=O)Cn1cc(C(=O)N2CCC3(CC2)OC(=O)c2cc(F)ccc23)c2ccc(Cl)cc21` [Example 110, 2-{6-Chloro-3-[(5-fluoro-3-oxo-1′H,3H-spiro[2-benzofuran-1,4′-piperidin]-1′-yl)carbonyl]-1H-indol-1-yl}-N,N-dimethylacetamide] gave a pKi of 9.10.

With `O=C1OC2(CCN(C(=O)c3cn(CCC4CCOCC4)c4cc(Cl)ccc34)CC2)c2ccc(F)cc21` [Example 195, 1′-({6-Chloro-1-[2-(tetrahydro-2H-pyran-4-yl)ethyl]-1H-indol-3-yl}carbonyl)-5-fluoro-3H-spiro[2-benzofuran-1,4′-piperidin]-3-one hydrochloride], the pKi is 8.68.

`CN(CCNC(=O)c1[nH]c2cc(Cl)ccc2c1C(=O)N1CCC2(CC1)OC(=O)c1cc(F)ccc12)C(=O)OC(C)(C)C` [Example 30, tert-butyl {2-[({6-chloro-3-[(5-fluoro-3-oxo-1′H,3H-spiro[2-benzofuran-1,4′-piperidin]-1′-yl)carbonyl]-1H-indol-2-yl}carbonyl)amino]ethyl}methylcarbamate]: the pKi was 8.24. The compound `O=C(c1c[nH]c2cc(Cl)ccc12)N1CCC2(CC1)CNc1ccccc12` [Example 8, 1′-[(6-chloro-1H-indol-3-yl)carbonyl]-1,2-dihydrospiro[indole-3,4′-piperidine]] gave a pKi of 7.57.

In turn, `O=C1OC2(CCN(C(=O)c3cn(-c4ccccc4-c4ccccc4)c4cc(Cl)ccc34)CC2)c2ccccc21` [Example 157, 1′-[(1-Biphenyl-2-yl-6-chloro-1H-indol-3-yl)carbonyl]-3H-spiro[2-benzofuran-1,4′-piperidin]-3-one] gave a pKi of 7.40. Then `O=C(c1cn(CC2CNCCO2)c2cc(Cl)ccc12)N1CCC2(CC1)OCc1ccccc12` (stereo not drawn) [Example 248, 1′-{[6-Chloro-1-(morpholin-2-ylmethyl)-1H-indol-3-yl]carbonyl}-3H-spiro[2-benzofuran-1,4′-piperidine]hydrochloride], with 8.82; and `CN1CCn2c(c(C(=O)N3CCC4(CC3)OCc3ccccc34)c3ccccc32)C1` [Example 276, 1′-[(2-Methyl-1,2,3,4-tetrahydropyrazino[1,2-a]indol-10-yl)carbonyl]-3H-spiro[2-benzofuran-1,4′-piperidine]], with 7.92; and `Cc1noc(C)c1Cn1cc(C(=O)N2CCC3(CC2)OC(=O)c2cc(F)ccc23)c2ccc(Cl)cc21` [Example 186, 1′-({6-Chloro-1-[(3,5-dimethylisoxazol-4-yl)methyl]-1H-indol-3-yl}carbonyl)-5-fluoro-3H-spiro[2-benzofuran-1,4′-piperidin]-3-one], with 8.54. As for `Cc1c(C(=O)N2CCC3(CC2)OCc2ccccc23)c2ccccc2n1Cc1ccccc1Cl` [Example 53, 1′-{[1-(2-chlorobenzyl)-2-methyl-1H-indol-3-yl]carbonyl}-3H-spiro[2-benzofuran-1,4′-piperidine]], the pKi is 8.77. Compared with the last compound, the pKi is 0.23 log units higher. Then `O=C(c1cn(-c2cccc(F)c2)c2cc(Cl)ccc12)N1CCC2(CC1)OCc1ccccc12` [Example 223], with 8.60; and `O=C(c1cn(Cc2cccnc2)c2cc(Cl)ccc12)N1CCC2(CC1)CNc1ccccc12` [Example 102, 1′-{[6-Chloro-1-(pyridin-3-ylmethyl)-1H-indol-3-yl]carbonyl}-1,2-dihydrospiro[indole-3,4′-piperidine]], with 7.60. Compound `O=C(c1cn(Cc2cncnc2)c2cc(Cl)ccc12)N1CCC2(CC1)OCc1ccccc12` [Example 235] showed a negative-log Ki (pKi) of 8.85. The compound `O=C1OC2(CCN(C(=O)c3cn(Cc4cccc(F)c4)c4cc(Cl)ccc34)CC2)c2ccc(F)cc21` [Example 143, 1′-{[6-Chloro-1-(3-fluorobenzyl)-1H-indol-3-yl]carbonyl}-5-fluoro-3H-spiro[2-benzofuran-1,4′-piperidin]-3-one] showed a pKi of 9.00.

Compound `O=C(c1cn(S(=O)(=O)c2cc(F)cc(F)c2)c2cc(Cl)ccc12)N1CCC2(CC1)OCc1ccccc12` [Example 218] showed a negative-log Ki (pKi) of 7.60. Consider `O=C(c1cn(Cc2ccncc2)c2cc(Cl)ccc12)N1CCC2(CC1)OCc1ccccc12` [Example 228], for which the negative-log Ki (pKi) was 8.82. Next, `O=C(c1cn(C(=O)c2cccc(F)c2F)c2cc(Cl)ccc12)N1CCC2(CC1)OCc1ccccc12` [Example 217]: 8.24. With `CCN(CC)C(=O)Cn1cc(C(=O)N2CCC3(CC2)OC(=O)c2ccccc23)c2ccc(Cl)cc21` [Example 107, 2-{6-Chloro-3-[(3-oxo-1′H,3H-spiro[2-benzofuran-1,4′-piperidin]-1′-yl)carbonyl]-1H-indol-1-yl}-N,N-diethylacetamide], the pKi was 8.89. Compound `CN(C)CCn1cc(C(=O)N2CCC3(CC2)COc2ccccc23)c2ccc(Cl)cc21` [Example 81, 2-[6-chloro-3-(1′H-spiro[1-benzofuran-3,4′-piperidin]-1′-ylcarbonyl)-1H-indol-1-yl]-N,N-dimethylethanamine] showed a pKi of 8.30. Against the preceding compound, the pKi is 0.59 log units lower. Next, `Cc1cc(Cn2cc(C(=O)N3CCC4(CC3)OCc3ccccc34)c3ccc(Cl)cc32)no1` [Example 236, 1′-({6-Chloro-1-[(5-methylisoxazol-3-yl)methyl]-1H-indol-3-yl}carbonyl)-3H-spiro[2-benzofuran-1,4′-piperidine]]: 8.77. `Cc1cc2c(C(=O)N3CCC4(CC3)OCc3ccccc34)cn(CC(=O)N(C)C)c2cc1Cl` [Example 213, 2-[6-Chloro-5-methyl-3-(1′H,3H-spiro[2-benzofuran-1,4′-piperidin]-1′-ylcarbonyl)-1H-indol-1-yl]-N,N-dimethylacetamide] gave a negative logarithm of the Ki (pKi) of 8.48. Next, `Cc1c(C(=O)N2CCC3(CCc4ccccc43)CC2)c2ccccc2n1Cc1ccccc1` [Example 2, 1′-[(1-benzyl-2-methyl-1H-indol-3-yl)carbonyl]-2,3-dihydrospiro[indene-1,4′-piperidine]]: 7.79; `CNC(=O)Cn1cc(C(=O)N2CCC3(CC2)OCc2ccccc23)c2ccc(Cl)cc21` [Example 255, 2-[6-Chloro-3-(1′H,3H-spiro[2-benzofuran-1,4′-piperidin]-1′-ylcarbonyl)-1H-indol-1-yl]-N-methylacetamide]: 8.85. Then `Cc1cc(Cn2cc(C(=O)N3CCC4(CC3)OC(=O)c3cc(F)ccc34)c3ccc(Cl)cc32)c(Cl)nn1` [Example 165, 1′-({6-Chloro-1-[(3-chloro-6-methylpyridazin-4-yl)methyl]-1H-indol-3-yl}carbonyl)-5-fluoro-3H-spiro[2-benzofuran-1,4′-piperidin]-3-one], with 8.37.
